According to patent US12077503B2, “Substituted cyclic amides and their use as herbicides” (FMC CORPORATION, priority 2015, dated 2024):
Like-named read-outs stand apart in the source and are kept apart here.

Experiments:
Format in all cases: in vivo
rice (Oryra sativa) = assay: Test B flooded paddy test; settings: Oryza sativa, 250 g ai/ha, Flood; 0 to 100 scale where 0 is no effect and 100 is complete control; read-out: Rice plant response rating
In short: (§1)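 Flooding to 3 cm over soil accompanied treatment, which consisted of adding compound to the standing water around 2-leaf plants; depth was then maintained. Visual assessment versus controls followed at 13 to 15 d (scale 0–100, 0 meaning no effect).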

[1] = tested on: ducksalad (Heteranthera limosa); assay: Test B flooded paddy test; settings: Heteranthera limosa, 250 g ai/ha, Flood; 0 to 100 scale where 0 is no effect and 100 is complete control; read-out: Ducksalad plant response rating
In short: as §1

[2] = tested on: sedge, umbrella (small-flower umbrella sedge, Cyperus difformis); assay: Test B flooded paddy test; settings: Cyperus difformis, 250 g ai/ha, Flood; 0 to 100 scale where 0 is no effect and 100 is complete control; read-out: Sedge, Umbrella plant response rating
In short: as §1

[3] = tested on: barnyardgrass (Echinochloa crus-galli); assay: Test B flooded paddy test; settings: Echinochloa crus-galli, 250 g ai/ha, Flood; 0 to 100 scale where 0 is no effect and 100 is complete control; read-out: Barnyardgrass plant response rating
In short: as §1

[4] = tested on: pigweed (Amaranthus retroflexus); assay: Test A preemergence; settings: Amaranthus retroflexus, pre-emergence, 240 h, preemergence, read-out: Pigweed plant response rating; for pest or weed control at 125 g/ha: 125 g ai/ha, approx. 10 d; for pest or weed control at 500 g/ha: 500 g ai/ha
[5] = tested on: ragweed (common ragweed, Ambrosia elatior); assay: Test A preemergence; settings: Ambrosia artemisiifolia, pre-emergence, 240 h, preemergence, read-out: Ragweed plant response rating; for pest or weed control at 125 g/ha: 125 g ai/ha, approx. 10 d; for pest or weed control at 500 g/ha: 500 g ai/ha
In short: (§2)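 Compounds were formulated in a non-phytotoxic solvent mixture with surfactant and applied as a preemergence directed soil spray after seeding, or sprayed postemergence over plants 2 to 10 cm tall at the one- to two-leaf stage. Evaluation after about 10 d compared treated with untreated controls, using a scale from 0 (no effect) to 100 (complete control).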

[6] = tested on: giant foxtail (Setaria faberii); assay: Test A preemergence; settings: Setaria faberi, pre-emergence, 240 h; for pest or weed control at 125 g/ha: 125 g ai/ha; for pest or weed control at 500 g/ha: 500 g ai/ha
In short: as §2

[7] = tested on: ryegrass, Italian (Italian ryegrass, Lolium multiflorum); assay: Test A preemergence; settings: Lolium multiflorum, pre-emergence, 240 h, preemergence, read-out: Ryegrass, Italian plant response rating; for pest or weed control at 125 g/ha: 125 g ai/ha, approx. 10 d; for pest or weed control at 500 g/ha: 500 g ai/ha
In short: as §2

[8] = tested on: barnyardgrass (Echinochloa crus-galli); assay: Test A preemergence; settings: Echinochloa crus-galli, pre-emergence, 240 h; for pest or weed control at 125 g/ha: 125 g ai/ha; for pest or weed control at 500 g/ha: 500 g ai/ha
In short: as §2

Kochia (Kochia scoparia) = assay: Test A preemergence; settings: Bassia scoparia, pre-emergence, 240 h, preemergence, read-out: Kochia plant response rating; for pest or weed control at 125 g/ha: 125 g ai/ha, approx. 10 d; for pest or weed control at 500 g/ha: 500 g ai/ha
In short: as §2

[9] = tested on: wheat (Triticum aestivum); assay: Test A postemergence; settings: Triticum aestivum, post-emergence, 240 h, postemergence; for plant injury at 125 g/ha: 125 g ai/ha; for plant injury at 500 g/ha: 500 g ai/ha, 0 to 100 scale, 0 is no effect, 100 is complete control
In short: as §2

[10] = tested on: ragweed (common ragweed, Ambrosia elatior); assay: Test A postemergence; settings: Ambrosia artemisiifolia, post-emergence, 240 h, postemergence; for pest or weed control at 125 g/ha: 125 g ai/ha; for pest or weed control at 500 g/ha: 500 g ai/ha, 0 to 100 scale, 0 is no effect, 100 is complete control
In short: as §2

[11] = tested on: giant foxtail (Setaria faberii); assay: Test A postemergence; settings: Setaria faberi, post-emergence, 240 h, postemergence, read-out: Foxtail, Giant plant response rating; for pest or weed control at 125 g/ha: 125 g ai/ha, visual injury on 0 to 100 scale (0 no effect, 100 complete control), approx. 10 d; for pest or weed control at 500 g/ha: 500 g ai/ha, 0 to 100 scale, 0 is no effect, 100 is complete control
In short: as §2

[12] = tested on: ryegrass, Italian (Italian ryegrass, Lolium multiflorum); assay: Test A postemergence; settings: Lolium multiflorum, post-emergence, 240 h, postemergence; for pest or weed control at 125 g/ha: 125 g ai/ha; for pest or weed control at 500 g/ha: 500 g ai/ha, 0 to 100 scale, 0 is no effect, 100 is complete control
In short: as §2

[13] = 0 to 100 scale where 0 is no effect and 100 is complete control
[14] = visual injury rating about 10 d after treatment, 0 to 100 scale (0 no effect, 100 complete control)
[15] = read-out: Wheat plant response rating
[16] = read-out: Ragweed plant response rating
[17] = read-out: Ryegrass, Italian plant response rating
[18] = preemergence, 0 to 100 scale where 0 is no effect and 100 is complete control, approx. 10 d, read-out: Foxtail, Giant plant response rating
[19] = preemergence, 0 to 100 scale where 0 is no effect and 100 is complete control, read-out: Foxtail, Giant plant response rating
[20] = preemergence, 0 to 100 scale where 0 is no effect and 100 is complete control, approx. 10 d, read-out: Barnyardgrass plant response rating
[21] = preemergence, 0 to 100 scale where 0 is no effect and 100 is complete control, read-out: Barnyardgrass plant response rating
[22] = visual injury vs untreated controls after approx. 10 d, 0 = no effect, 100 = complete control, read-out: Wheat plant response rating (0 to 100 scale)
[23] = visual injury vs untreated controls after approx. 10 d, 0 = no effect, 100 = complete control, read-out: Ragweed plant response rating (0 to 100 scale)
[24] = visual injury vs untreated controls after approx. 10 d, 0 = no effect, 100 = complete control, read-out: Ryegrass, Italian plant response rating (0 to 100 scale)

SMILES | pest or weed control at 250 g/ha (rice (Oryra sativa)) [%] | pest or weed control at 250 g/ha [1] [%] | pest or weed control at 250 g/ha [2] [%] | pest or weed control at 250 g/ha [3] [%] | pest or weed control at 125 g/ha [4, 13] [%] | pest or weed control at 125 g/ha [5, 13] [%] | pest or weed control at 125 g/ha [7, 13] [%] | pest or weed control at 125 g/ha (Kochia (Kochia scoparia); [13]) [%] | plant injury at 500 g/ha [9, 15] [%] | pest or weed control at 500 g/ha [10, 16] [%] | pest or weed control at 125 g/ha [11] [%] | pest or weed control at 500 g/ha [11] [%] | pest or weed control at 500 g/ha [12, 17] [%] | pest or weed control at 500 g/ha [4, 13] [%] | pest or weed control at 500 g/ha [5, 13] [%] | pest or weed control at 125 g/ha [6, 18] [%] | pest or weed control at 500 g/ha [6, 19] [%] | pest or weed control at 500 g/ha [7, 13] [%] | pest or weed control at 125 g/ha [8, 20] [%] | pest or weed control at 500 g/ha [8, 21] [%] | further results
Cc1ccc([C@H]2CN(C)C(=O)[C@]2(O)C(=O)Nc2cccc(F)c2F)cc1 (racemic) [Compound 1059] | 0 | 0 | 0 | 0 | 0 | 0 | 0 | 0 | 0 | 0 | 0 | 40 | 20 | – | – | – | – | – | – | – | pest or weed control at 500 g/ha [4, 14]: 0%; pest or weed control at 500 g/ha [5, 14]: 30%; pest or weed control at 125 g/ha ([6]; Preemergence, visual injury rating after approximately 10 d, read-out: Foxtail, Giant plant response rating (0 to 100 scale, 0 is no effect, 100 is complete control)): 70%; pest or weed control at 500 g/ha ([6]; preemergence, visual injury rating about 10 d after treatment, 0 to 100 scale (0 no effect, 100 complete control), read-out: Foxtail, Giant plant response rating): 80%; pest or weed control at 500 g/ha [7, 14]: 0%; pest or weed control at 125 g/ha ([8]; Preemergence, visual injury rating after approximately 10 d, read-out: Barnyardgrass plant response rating (0 to 100 scale, 0 is no effect, 100 is complete control)): 70%; pest or weed control at 500 g/ha ([8]; preemergence, visual injury rating about 10 d after treatment, 0 to 100 scale (0 no effect, 100 complete control), read-out: Barnyardgrass plant response rating): 90%; pest or weed control at 500 g/ha (Kochia (Kochia scoparia); [14]): 20%; plant injury at 125 g/ha ([9]; visual injury on 0 to 100 scale (0 no effect, 100 complete control), approx. 10 d, read-out: Wheat plant response rating): 0%; pest or weed control at 125 g/ha ([10]; visual injury on 0 to 100 scale (0 no effect, 100 complete control), approx. 10 d, read-out: Ragweed plant response rating): 0%; pest or weed control at 125 g/ha ([12]; visual injury on 0 to 100 scale (0 no effect, 100 complete control), approx. 10 d, read-out: Ryegrass, Italian plant response rating): 0%
CN1C[C@H](c2ccc(C(F)(F)F)cc2)[C@](F)(C(=O)Nc2cccc(F)c2F)C1=O (racemic) [Compound 1152] | 0 | 0 | 0 | 0 | 60 | 0 | 0 | 0 | 0 | 0 | 20 | 40 | 0 | 80 | 0 | 70 | 90 | 20 | 20 | 90 | pest or weed control at 500 g/ha (Kochia (Kochia scoparia); [13]): 0%; plant injury at 125 g/ha [9, 22]: 0%; pest or weed control at 125 g/ha [10, 23]: 0%; pest or weed control at 125 g/ha [12, 24]: 0%
CN1C[C@H](c2ccc(F)c(F)c2)[C@@H](C(=S)Nc2ccccc2F)C1=O (racemic) [Compound 1153] | 0 | 70 | 0 | 30 | 0 | 0 | 30 | 60 | 0 | 0 | 60 | 90 | 0 | 0 | 0 | 90 | 90 | 50 | 80 | 90 | pest or weed control at 500 g/ha (Kochia (Kochia scoparia); [13]): 70%; plant injury at 125 g/ha [9, 22]: 0%; pest or weed control at 125 g/ha [10, 23]: 0%; pest or weed control at 125 g/ha [12, 24]: 0%
